The test has as its system platelet aggregation in platelet-rich plasma triggered by thrombin receptor agonist (TRAP6, SFLLRN). As to the kind of experiment: Platelet aggregation in plasma (TRAP6/SFLLRN-triggered, turbidimetry according to Born). It is filed as cell-based. To be noted: Homo sapiens, 10 min, platelet-rich plasma of healthy volunteers, 10 min at 37° C. with test substance, concentration which inhibits aggregation by 50%. The method, then: To determine the platelet aggregation, blood from healthy volunteers of both genders, who had not received any platelet aggregation-influencing medication for the last ten days, is used. The blood is taken up into monovettes (Sarstedt, Nümbrecht, Germany) which contain, as anticoagulant, sodium citrate 3.8% (1 part of citrate+9 parts of blood). To obtain platelet-rich plasma, the citrated whole blood is centrifuged at 140 g for 20 min
For the aggregation measurements, aliquots of the platelet-rich plasma with increasing concentrations of test substance are incubated at 37° C. for 10 min. Subsequently, aggregation is triggered by addition of a thrombin receptor agonist (TRAP6, SFLLRN) in an aggregometer and determined at 37° C. by means of the turbidimetry method according to Born (Born, G. V. R., Cross M. J., The Aggregation of Blood Platelets; J. Physiol. 1963, 168, 178-195). The SFLLRN concentration leading to maximum aggregation is, if appropriate, determined individually for each donor.
To calculate the inhibitory effect, the maximum increase of light transmission (amplitude of the aggregation curve in %) is determined within 5 minutes after addition of the agonist in the presence and absence of test substance, and the inhibition is calculated. The inhibition curves are used to calculate the concentration which inhibits aggregation by 50%.

`CCOc1noc(C2CC(c3ccc(CC(F)(F)F)cc3)CN(C(=O)N3CC[S+]([O-])CC3)C2)n1` (single isomer, unassigned) [Example 66, {3-(3-Ethoxy-1,2,4-oxadiazol-5-yl)-5-[4-(2,2,2-trifluoroethyl)phenyl]piperidin-1-yl}(1-oxidothio-morpholin-4-yl)methanone] came in with an IC50 of 0.54 nM.

Consider `CCc1ccc(C2CC(c3nc(OCCOC)no3)CN(C(=O)N3CCS(=O)(=O)CC3)C2)cc1` (single isomer, unassigned) [Example 63, (1,1-Dioxidothiomorpholin-4-yl){3-(4-ethylphenyl)-5-[3-(2-methoxyethoxy)-1,2,4-oxadiazol-5-yl]-piperidin-1-yl}-methanone], for which the concentration for half-maximal inhibition (IC50) is 0.24 nM.

`CCOc1noc(C2CC(c3ccc(CC(F)(F)F)cc3)CN(C(=O)N3CCS(=O)(=O)CC3)C2)n1` (single isomer, unassigned) [Example 69, (1,1-Dioxidothiomorpholin-4-yl) {3-(3-ethoxy-1,2,4-oxadiazol-5-yl)-5-[4-(2,2,2-trifluoroethyl)-phenyl]piperidin-1-yl}methanone] registered an IC50 of 0.25 nM.

In turn, `CCN(CC)c1noc(C2CC(c3ccc(C(F)(F)F)cc3)CN(C(=O)N3CCOCC3)C2)n1` (single isomer, unassigned) [Example 6, {3-[3-(Diethylamino)-1,2,4-oxadiazol-5-yl]-5-[4-(trifluoromethyl)phenyl]piperidin-1-yl}-(morpholin-4-yl)methanone] displayed an IC50 of 0.67 nM.

The molecule `CCOc1noc(C2CC(c3ccc(CC)c(F)c3)CN(C(=O)N3CCS(=O)(=O)CC3)C2)n1` (racemic) [Example 101, (1,1-Dioxidothiomorpholin-4-yl)[3-(3-ethoxy-1,2,4-oxadiazol-5-yl)-5-(4-ethyl-3-fluorophenyl)-piperidin-1-yl]methanone] came in with an IC50 of 0.3 nM.

As usually defined, the IC50 is the midpoint of a concentration-inhibition curve.
